Data from patent publication US6677433B2 (The Regents of the University of California, priority 2001, dated 2004).

Columns and labels:
trypsin = experiment: Trypsin proteolysis of purified milk allergen proteins; type: biochemical; settings: 2 μg trypsin
Method: The analysis of the reduction was done using the mBBr/SDS-PAGE techniques. Further in this study, when 10 μg of an NTS reduced purified milk allergen protein, β-lactoglobulin (Sigma Chemical Co.), was treated with 2 μg of trypsin, proteolysis was 100% as compared with only 50% for the identically trypsin treated oxidized β-lactoglobulin. […] However, 10 μg of purified […] reduced by the NTS was proteolyzed 80% by trypsin. Also 10 μg of α-lactalbumin reduced by 0.8 μg of thioredoxin and 0.5 mM DTT was 100% proteolyzed by 2 μg of trypsin.

pepsin [1] = experiment: Assay for stability to pepsin (simulated gastric fluid); type: in vitro ADME, porcine; settings: 37° C.
Method: BLG (1 mg/ml) or milk (15 mg/ml) were mixed with simulated gastric fluid (SGF) to give 0.32% pepsin and incubated for the indicated times at 37° C. as described in Example 39 and Astwood et al., 1996, herein incorporated by reference. The digested proteins were analyzed by reducing SDS-PACE (10 to 20% gradient gel) also as described in Laemmli, 1970, herein incorporated by reference.

pepsin [2] = experiment: Pepsin assay in simulated gastric fluid; type: in vitro ADME, porcine; settings: oxidized BLG in milk, SGF 37° C.
Method: BLG, 640 μg, or milk, 1 mg protein (i.e., about 30 μl), was incubated with or without the thioredoxin system (NTS) at either 4° C. […] The BLG, 320 μg, or milk, 500 μg protein, was then treated in 200 μl of simulated gastric fluid (SGF) as described by Astwood, J. D. et al. (1996), “Stability of food allergens to digestion in vitro”, Nature Biotechnol. 14:1269-1273. SGF consists of 0.32% pepsin (w/v) and 30 mM NaCl adjusted at pH 1.2 with HCl (Board of Trustees (ed.) 1995, Simulated Gastric Fluid, TS., pp. 2053 in the United States Pharmacopeia 23, The National Formulary 18. United States Pharmacopeial Convention, Inc. Rockville, Md.). The reaction mixture was incubated at 37° C. and stopped by adding 0.375-fold volume of 160 mM Na2CO3 (ca. pH 7) after 0, 0.25, 1, 2, 4, 8, 15, 30 and 60 min incubation. The protein mixture was then subjected to SDS-PAGE (15% gels) and stained for protein with Coomassie blue as described below. As indicated, the allergenicity of the digested samples was determined by skin test analysis.

NADP/thioredoxin system = NADP/thioredoxin system (Escherichia coli, UniProt P0AA25)
Method: Reactions were carried out in physiological buffered saline solution (PBS; i.e., 10 mM Na2HPO4, 1.8 mM KH2PO4, 2.7 mM KCl and 137 mM NaCl, pH 7.4) containing either 10 μg of pure target protein or 50 μg of raw milk. The reaction mixtures were incubated at 4° C. overnight or at 37° C. and 55° C. for 45 min. For complete reduction, samples were incubated in PBS containing 5 μl of 100 mM DTT and boiled 5 min. The reduced proteins were visualized on gels by mBBr labeling and gel electrophoresis as described below. The extent of reduction was determined by scanning the gels.
Sulfhydryl groups were visualized as their fluorescent mBBr derivatives. mBBr, 10 μl of a 100 mM solution, was added to each protein sample. After 20 min of incubation, the reaction was stopped by adding 10 μl of 100 mM 2-mercaptoethanol, 10 μl of 20% SDS and 20 μl of SDS/PAGE sample buffer containing 80% (v/v) glycerol and 0.005% bromophenol blue. Proteins were then separated by SDS/PAGE (10-20% acrylamide gradient) as described below. After electrophoresis, gels were placed in 12% trichloroacetic acid for 1 hr for fixation and then soaked overnight or longer in 40% (v/v) methanol and 10% (v/v) acetic acid with several changes to remove excess mBBr. The destained gels were then placed under 365 nm UV light to visualize fluorescent bands. […]

atopic dogs = experiment: Skin tests in atopic dogs (wheal area); settings: dog, in vivo
Method: Newborn pups from two litters of the atopic dog colony, designated CGB and GCB, were injected subcutaneously at day 1 with 1 μg each of wheat, cows milk and beef extract (Miles, Inc., Elkhart, Ind., described in Example 33) in 0.2 ml of alum. A third litter, designated CBB, was injected with a soy extract (Miles, Inc. described in Example 33) in addition to these same allergens. Procedures for the sensitization, testing and maintenance of the pups were substantially the same as those described in Example 36.
About 3 min prior to skin testing, each dog received 4-5 ml of filtered 0.5% Evans blue dye solution (equivalent to 0.2 ml of 0.5% Evans blue dye per kg of weight) through a cephalic vein to enhance assessment of the cutaneous IgE antibodies. Serial dilutions of 100 μl of each sample were injected intradermally on the abdominal skin to establish the titer. After 15-20 min, the allergic response was determined by measuring the size of the blue wheal reaction (maximum length and width). An appropriate negative control (buffer diluted in physiological saline) was included for each animal tested. Repeated tests with thioredoxin, NTR, NADPH and pepsin alone were consistently negative.

Acetylcholine Receptor = molecular target: T1, Acetylcholine Receptor (Mus musculus, UniProt P02716+P04756+P04760); type: binding; settings: cells treated with reductant, washed, then toxin; no reductant = 100
T1 construct: Mouse cells, line C2, were grown as described by Gu et al; endogenous in cells; host or cells: mouse cell line C2, after fusion medium (myotubes)
T1 sequence (P04760 23-519): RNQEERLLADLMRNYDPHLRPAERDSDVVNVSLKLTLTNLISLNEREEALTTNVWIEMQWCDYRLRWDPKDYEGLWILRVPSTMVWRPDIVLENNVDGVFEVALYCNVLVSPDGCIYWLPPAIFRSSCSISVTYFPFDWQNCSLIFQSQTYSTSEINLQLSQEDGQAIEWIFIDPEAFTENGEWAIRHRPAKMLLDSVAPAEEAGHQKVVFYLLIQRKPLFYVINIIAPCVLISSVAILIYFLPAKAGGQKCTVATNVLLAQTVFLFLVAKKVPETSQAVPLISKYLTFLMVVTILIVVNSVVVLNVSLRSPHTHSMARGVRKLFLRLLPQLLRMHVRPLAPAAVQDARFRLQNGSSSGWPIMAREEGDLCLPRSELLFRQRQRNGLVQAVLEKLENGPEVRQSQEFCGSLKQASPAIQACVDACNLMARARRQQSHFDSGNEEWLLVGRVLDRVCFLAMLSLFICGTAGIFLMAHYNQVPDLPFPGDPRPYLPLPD
T1 sequence (P02716 25-520): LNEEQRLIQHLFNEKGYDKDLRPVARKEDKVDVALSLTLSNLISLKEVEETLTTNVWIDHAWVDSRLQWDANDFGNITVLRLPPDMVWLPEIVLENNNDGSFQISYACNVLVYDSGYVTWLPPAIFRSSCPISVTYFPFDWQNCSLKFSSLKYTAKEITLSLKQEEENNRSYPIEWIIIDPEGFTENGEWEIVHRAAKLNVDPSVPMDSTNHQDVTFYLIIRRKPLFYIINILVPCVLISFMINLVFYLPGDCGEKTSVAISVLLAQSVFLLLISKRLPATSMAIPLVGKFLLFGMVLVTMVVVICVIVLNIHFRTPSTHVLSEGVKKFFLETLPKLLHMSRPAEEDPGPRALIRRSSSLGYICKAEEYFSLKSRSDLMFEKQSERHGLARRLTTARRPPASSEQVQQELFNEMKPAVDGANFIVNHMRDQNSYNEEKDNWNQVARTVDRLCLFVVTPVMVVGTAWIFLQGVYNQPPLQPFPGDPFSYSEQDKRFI
T1 sequence (P09690 24-501, further chain): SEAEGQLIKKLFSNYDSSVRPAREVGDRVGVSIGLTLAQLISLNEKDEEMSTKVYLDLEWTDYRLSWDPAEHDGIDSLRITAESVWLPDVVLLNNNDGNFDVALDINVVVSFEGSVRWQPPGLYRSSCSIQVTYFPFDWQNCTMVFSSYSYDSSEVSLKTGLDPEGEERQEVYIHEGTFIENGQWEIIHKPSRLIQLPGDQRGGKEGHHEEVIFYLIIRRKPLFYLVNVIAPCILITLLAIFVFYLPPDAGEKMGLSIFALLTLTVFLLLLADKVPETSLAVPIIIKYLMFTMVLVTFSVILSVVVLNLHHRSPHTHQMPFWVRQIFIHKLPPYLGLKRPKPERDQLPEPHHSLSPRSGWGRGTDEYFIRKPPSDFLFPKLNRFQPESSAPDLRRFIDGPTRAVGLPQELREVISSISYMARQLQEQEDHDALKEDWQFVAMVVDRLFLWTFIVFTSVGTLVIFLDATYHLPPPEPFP
T1 sequence (P04756 21-457): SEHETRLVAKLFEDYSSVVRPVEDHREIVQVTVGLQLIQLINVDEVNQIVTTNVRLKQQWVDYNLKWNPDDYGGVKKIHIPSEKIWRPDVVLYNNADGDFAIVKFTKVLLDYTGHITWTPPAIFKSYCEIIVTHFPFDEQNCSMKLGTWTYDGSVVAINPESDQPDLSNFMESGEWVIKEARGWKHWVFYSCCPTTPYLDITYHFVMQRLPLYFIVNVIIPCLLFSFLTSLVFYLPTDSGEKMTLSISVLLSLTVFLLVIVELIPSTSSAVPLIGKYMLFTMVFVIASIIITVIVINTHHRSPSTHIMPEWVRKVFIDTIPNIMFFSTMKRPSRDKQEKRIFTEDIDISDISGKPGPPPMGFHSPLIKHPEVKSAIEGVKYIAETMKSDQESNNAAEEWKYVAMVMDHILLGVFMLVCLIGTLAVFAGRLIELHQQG

castor seed 2S protein = type: biochemical, Ricinus communis; settings: 20 min at 25° C.
[3] = Reoxidation of reduced BLG in air; type: physicochemical; settings: reduced by either NTS or DTT
Method: Two sulfhydryl (SH) groups can often spontaneously react to form an S—S bond in the presence of oxygen. […] For example, the reduced form of β-lactoglobulin (BLG), a major allergen of cow's milk, is fully reoxidized after 3 days in air whether reduced by either NTS or DTT. This invention provides for the stabilization of proteins, including allergenic proteins reduced by the NTS at 4° C. and by DTT at 55° C. Other physiological reductants such as lipoic acid may also be used to initially reduce the proteins. In general, the reduction reactions were conducted as described in previous examples. The proteins are stabilized in that the SH groups of these proteins and allergens are blocked and prevented from reoxidizing to form S—S bonds. This stabilization is maintained for at least three months, preferably at least six months and more preferably for longer than one year. Reduced BLG was stabilized by reaction with the physiological disulfides, cystamine and oxidized glutathione (GSSG) and also by heat. Other physiological disulfides such as homoglutathione and some microbial disulfides would also be suitable. Besides BLG, examples are provided for milk, peanut and pollen extracts. However, other reduced proteins such as those of egg, soy, rice, wheat and barley may also be stabilized by reaction with the same physiological disulfides and by treatment with heat. […]

β-lactoglobulin: bovine β-lactoglobulin, major milk allergen; Control = untreated BLG in Tables XVIII, XXI-XXIV
proteolysis by trypsin (trypsin; 10 μg oxidized protein): 50%
proteolysis by trypsin (trypsin; 10 μg protein reduced by the NTS): 100%
half-life in SGF (pepsin [1]): about 2 hours
time resisting digestion (pepsin [2]): at least 60 min
time BLG remained reduced (NADP/thioredoxin system): 2 days
share of the total wheal-inducing activity of milk (atopic dogs): 80%

O[C@H](CS)[C@H](O)CS (racemic) [DTT, dithiothreitol]
% Binding, Treatment C (Acetylcholine Receptor): 85.0%
Relative Reduction (%) (castor seed 2S protein): 67%

reduced form of BLG: BLG reduced by either NTS or DTT
time to full reoxidation in air [3]: 3 days
